Drawing on PubChem BioAssay (NCI), this text covers GI50 and TGI for 7 compounds.

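Protocol summary: plate cells (96-well), add compound at 5 concentrations, incubate 48 h, interpolate endpoints linearly. GI50: concentration for 50% inhibition of growth. TGI marks complete inhibition of growth.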 Bounds are passed on as bounds.

What all share (test): NCI-60 cell line screen, 48 h
Assay [1] relates to A498 renal.
The subject of assay [2] is DU-145 prostate.
For assay [3], the system named is MDA-MB-435.
The test system of assay [4] is MOLT-4 leukemia.
The test system of assay [5] is NCI-H23 lung.
The test system of assay [6] is OVCAR-4 ovarian.
Assay [7] has as its system SK-MEL-2 melanoma.
Assay [8] relates to SK-MEL-5 melanoma.
The subject of assay [9] is SK-OV-3 ovarian.
In assay [10] the test system is UO-31 renal.

`COc1ccc(NC(=O)COCCOCCNC[C@@H]2C(=O)O[C@H]3[C@H]2CC/C(COC(=O)OC/C2=C/CC[C@@]4(C)O[C@H]4[C@H]4OC(=O)[C@@H](CN(C)C)[C@@H]4CC2)=C\CC[C@@]2(C)O[C@@H]32)c(O)c1C(N)=O`: the GI50 in assay [1] was 16.6 µM; in [2], 7.21 µM; in assay [3] it was 5.19 µM; in assay [4] it was 1.63 µM; in assay [5], 9.06 µM; in assay [6] it was 3.19 µM. The GI50 was 9.69 µM in assay [7], 8.79 µM in [8], 40.6 µM in assay [9] and 2.51 µM in [10]. The TGI in assay [1] is more than 50 µM; in assay [2] it was 13.7 µM; in [3], 12.3 µM; in assay [4], 6 µM; in [5], 22.1 µM; in assay [6], 10.2 µM. In addition, the TGI in assay [7] is 20.3 µM; in assay [8], 17.3 µM; in assay [9] it was more than 50 µM; in [10], 9.13 µM.
With `COc1cc(-n2cc(-c3ccc(Cl)cc3)nc2SCc2cccc(C#N)c2)cc(OC)c1OC`, the GI50 in assay [1] was 33.3 µM; in assay [2], 48.1 µM; in assay [3], 82.9 µM; in assay [4], 37.5 µM; in assay [5], 37.5 µM; in [6] it was 20.9 µM. Moreover, the GI50 in assay [8] is 34.8 µM; in [9] it was 71.5 µM; in [10], 60.4 µM. Besides, the TGI in assay [1] is more than 100 µM; in [2], more than 100 µM; in [3], more than 100 µM; in assay [4], more than 100 µM; in [5], more than 100 µM; in [6] it was 74.7 µM. The TGI in assay [8], in assay [9] and in assay [10] was more than 100 µM throughout.
As for `Cc1cc(Cc2cc(C)cc(C(C)(C)C)c2O)c(O)c(Cc2cc(C)cc(C(C)(C)C)c2O)c1`, the TGI in assay [1] was 7.2 µM; in assay [2], 13.7 µM; in assay [3] it was 8.57 µM; in [4], 5.83 µM; in [5], 5.34 µM; in [6], 11.7 µM. Moreover, the TGI in [7] was 6.7 µM; in assay [8], 2.62 µM; in assay [9], 10.9 µM; in assay [10] it was 10.4 µM.
Consider `CCN1Cc2c(ccc(F)c2C#N)O[C@@H](C)CNC(=O)c2c(N)nn3ccc1nc23`, for which the GI50 in assay [1] is 0.712 µM; in [2], 2.09 µM; in assay [3], 2.74 µM; in assay [4] it was 2.75 µM; in assay [5], 2.3 µM; in assay [6] it was 8.44 µM. The GI50 was 1.72 µM in [7], 3.46 µM in assay [8], 1.66 µM in assay [9] and 1.14 µM in assay [10]. The TGI in assay [1] is 3.9 µM; in assay [2], 15.7 µM; in [3] it was 20.2 µM; in assay [4], 69.2 µM; in [5], 29.4 µM; in assay [6], more than 100 µM. Moreover, the TGI in [7] worked out at 5.22 µM; in assay [8] it was 15.2 µM; in assay [9] it was 15.3 µM; in [10], 6.53 µM.
In the case of `C=C1C(=O)O[C@H]2[C@H]1CCC(/C=N/c1ncc(Br)cc1N)=C\CC[C@@]1(C)O[C@@H]21`, the GI50 was 4.82 µM in assay [1]; 1.25 µM in assay [2]; 2.29 µM in assay [3]; 2.36 µM in assay [4]; 3.18 µM in [5]; 2.43 µM in assay [6]. Further, the GI50 in [7] is 1.96 µM; in assay [8], 1.55 µM; in assay [9], 16.3 µM; in [10], 1.28 µM. In addition, the TGI in [1] turned out to be 17.5 µM; in assay [2], 3.22 µM; in assay [3], 7.51 µM; in assay [4], 9.33 µM; in assay [5], 17.2 µM; in [6], 11.6 µM. In addition, the TGI was found to be 4.87 µM in [7], 3.01 µM in [8], 95.2 µM in assay [9] and 2.63 µM in assay [10].
With `CC(NCCC(=O)N(CCC(=O)N(CCC(=O)N(CCC(=O)N(CCC(=O)N(CCC(=O)N(CCC(=O)N(CCC(=O)N(CCC(=O)N(CCC(=O)O)[C@H](C)c1ccccc1)[C@H](C)c1ccccc1)[C@H](C)c1ccccc1)[C@H](C)c1ccccc1)[C@H](C)c1ccccc1)[C@H](C)c1ccccc1)[C@H](C)c1ccccc1)[C@H](C)c1ccccc1)[C@H](C)c1ccccc1)c1ccccc1` (stereo partly drawn), the GI50 is 2.37 µM in assay [1]; 2.34 µM in [2]; 1.71 µM in assay [3]; 1.61 µM in assay [4]; 3.9 µM in assay [5]; 2.48 µM in [6]. Besides, the GI50 is 1.9 µM in assay [7], 1.16 µM in [8], 10.6 µM in [9] and 3.55 µM in assay [10]. Moreover, the TGI is 11.8 µM in [1]; 12.3 µM in assay [2]; more than 16.1 µM in assay [3]; 6.7 µM in [4]; 49.1 µM in assay [5]; more than 68.7 µM in [6]. The TGI in assay [7] is 7.97 µM; in assay [8], 2.36 µM; in assay [9], more than 53 µM; in assay [10] it was more than 75 µM.
For `O=C(O)c1cc(-c2ccncc2)nc2ccccc12`, the TGI in assay [1], in [2], in assay [3], in [4], in [5] and in assay [6] was more than 100 µM each time. Besides, the TGI in [7], in [8], in assay [9] and in assay [10] was more than 100 µM throughout.
